Reference: patent US10485808B2, “Selective progesterone receptor modulators (SPRM) and stabilized estrogen level in patient” (BAYER PHARMA AKTIENGESELLSCHAFT, priority 2017, dated 2019)

System: healthy women of reproductive age
Assay: Study 15818: estradiol (E2) serum concentration after daily oral Compound 1
Type: in vivo, human
Experimental: Example 2: Circulating Endogenous Estrogen Concentrations in Healthy Women of Reproductive Age Receiving Compound 1 (Cp1)
Study protocol (N^o 15818): A randomized, double-blind, parallel-group, multi-center study to investigate the pharmacodynamics, pharmacokinetics and safety after daily oral administration of 4 different doses of Compound 1 in healthy women of reproductive age
Doses: 0.5 mg, 1 mg, 2 mg, or 4 mg once daily
Route of administration: Oral
Duration of treatment: 1×12 weeks (84 days)
• Age: 18-40 years • Smoking ≤10 cigarettes/day • Body mass index ≥18 and ≤32 kg/m^2 • Signed informed consent prior to study participation • No contraindication for intake of Compound 1 • Ovulation in pre-treatment cycle • Use of non-hormonal contraception during the study. Number of Subjects: see Table 1 for the number of subjects per Dosage Measurement of primary variable Estradiol: The estradiol (E2) serum concentration was assessed for each subject at the following Visit Days of the study, see FIG. 1 • Pre-treatment Day 9 (D9) corresponds to the period before start of Compound 1 uptake; the pre-treatment cycle starts on the first day of the subject waking up with menstrual bleeding with intensity more than spotting after screening examinations have shown that the subject is eligible for further participation. The pre-treatment period ends by the starting of next menstrual bleeding; • Treatment Day (D84) corresponds to last intake of Compound 1. The treatment phase started with the first and ended with the last intake of the study drug. The subjects have to start the intake of Compound 1 during the first week of the menstrual cycle after the pre-treatment cycle until the last Treatment Day (D84). • The follow-up cycle 1 started on the first day without study drug intake and will end in case of start of menstrual bleeding (i.e. when the subject is waking up with menstrual bleeding with intensity more than spotting). The first day of menstrual bleeding will define the start of follow-up cycle 2. Follow-up cycle 2 ended when the subjects report the next menstrual bleeding (i.e. first day of waking up with menstrual bleeding with intensity more than spotting).
During pre-treatment, end of treatment and at Follow-up Cycle 2, Estradiol (E2) serum concentrations are measured.
Eligible subjects were randomized to one of the treatment groups (0.5 mg, 1 mg, 2 mg, or 4 mg Compound 1). The treatment period consisted of 12 weeks (84 days) of daily tablet intake.

[1] = Cp1 0.5 mg once daily oral, Follow-up cycle2 D 9
[2] = Cp1 0.5 mg once daily oral, Pre-treatment D 9
[3] = Cp1 0.5 mg once daily oral, Treatment D 84
[4] = Cp1 1 mg once daily oral, Follow-up cycle2 D 9
[5] = Cp1 1 mg once daily oral, Pre-treatment D 9
[6] = Cp1 1 mg once daily oral, Treatment D 84
[7] = Cp1 2 mg once daily oral, Follow-up cycle2 D 9
[8] = Cp1 2 mg once daily oral, Pre-treatment D 9
[9] = Cp1 2 mg once daily oral, Treatment D 84
[10] = Cp1 4 mg once daily oral, Follow-up cycle2 D 9
[11] = Cp1 4 mg once daily oral, Pre-treatment D 9
[12] = Cp1 4 mg once daily oral, Treatment D 84

C[C@]12C[C@H](c3ccc(S(C)(=O)=O)cc3)C3=C4CCC(=O)C=C4CC[C@H]3[C@@H]1CC[C@@]2(O)C(F)(F)C(F)(F)F [Compound 1, (11β,17β)-17-Hydroxy-11-[4-(methylsulphonyl)phenyl]-17-(pentafluoroethyl)estra-4,9-dien-3-one]
Change of estradiol (E2) concentrations during treatment (0.5-4 mg once daily, 12 weeks): slight decrease | Estradiol concentrations in serum, Max [1]: 262 pg/mL | Estradiol concentrations in serum, Mean [1]: 116.1 pg/mL | Estradiol concentrations in serum, Median [1]: 79.9 pg/mL | Estradiol concentrations in serum, Min [1]: 17 pg/mL | Estradiol concentrations in serum, Max [2]: 381 pg/mL | Estradiol concentrations in serum, Mean [2]: 138 pg/mL | Estradiol concentrations in serum, Median [2]: 104.5 pg/mL | Estradiol concentrations in serum, Min [2]: 14 pg/mL | Estradiol concentrations in serum, Max [3]: 423 pg/mL | Estradiol concentrations in serum, Mean [3]: 135.6 pg/mL | Estradiol concentrations in serum, Median [3]: about 80 pg/mL | Estradiol concentrations in serum, Min [3]: 23 pg/mL | Estradiol concentrations in serum, Median (Cp1 0.5 mg once daily oral, Treatment D 84, listed as Cp1): 82 pg/mL | Estradiol concentrations in serum, Max [4]: 305 pg/mL | Estradiol concentrations in serum, Mean [4]: 143.8 pg/mL | Estradiol concentrations in serum, Median [4]: 119.2 pg/mL | Estradiol concentrations in serum, Min [4]: 39 pg/mL | Estradiol concentrations in serum, Max [5]: 311 pg/mL | Estradiol concentrations in serum, Mean [5]: 143.3 pg/mL | Estradiol concentrations in serum, Median [5]: 92.3 pg/mL | Estradiol concentrations in serum, Min [5]: 39 pg/mL | Estradiol concentrations in serum, Max [6]: 276 pg/mL | Estradiol concentrations in serum, Mean [6]: 119.4 pg/mL | Estradiol concentrations in serum, Median [6]: about 80 pg/mL | Estradiol concentrations in serum, Min [6]: 42 pg/mL | Estradiol concentrations in serum, Median (Cp1 1 mg once daily oral, Treatment D 84, listed as Cp1): 81.5 pg/mL | Estradiol concentrations in serum, Max [7]: 395 pg/mL | Estradiol concentrations in serum, Mean [7]: 123.9 pg/mL | Estradiol concentrations in serum, Median [7]: 80.9 pg/mL | Estradiol concentrations in serum, Min [7]: 33 pg/mL | Estradiol concentrations in serum, Max [8]: 308 pg/mL | Estradiol concentrations in serum, Mean [8]: 113.5 pg/mL | Estradiol concentrations in serum, Median [8]: 82.2 pg/mL | Estradiol concentrations in serum, Min [8]: 33 pg/mL | Estradiol concentrations in serum, Max [9]: 330 pg/mL | Estradiol concentrations in serum, Mean [9]: 91.2 pg/mL | Estradiol concentrations in serum, Median [9]: about 80 pg/mL | Estradiol concentrations in serum, Min [9]: 34 pg/mL | Estradiol concentrations in serum, Median (Cp1 2 mg once daily oral, Treatment D 84, listed as Cp1): 78.5 pg/mL | Estradiol concentrations in serum, Max [10]: 279 pg/mL | Estradiol concentrations in serum, Mean [10]: 109.9 pg/mL | Estradiol concentrations in serum, Median [10]: 88.7 pg/mL | Estradiol concentrations in serum, Min [10]: 41 pg/mL | Estradiol concentrations in serum, Max [11]: 200 pg/mL | Estradiol concentrations in serum, Mean [11]: 126.4 pg/mL | Estradiol concentrations in serum, Median [11]: 122.9 pg/mL | Estradiol concentrations in serum, Min [11]: 44 pg/mL | Estradiol concentrations in serum, Max [12]: 81 pg/mL | Estradiol concentrations in serum, Mean [12]: 53.9 pg/mL | Estradiol concentrations in serum, Median [12]: about 50 pg/mL | Estradiol concentrations in serum, Min [12]: 39 pg/mL | Estradiol concentrations in serum, Median (Cp1 4 mg once daily oral, Treatment D 84, listed as Cp1): 50.5 pg/mL | Reversibility of estradiol (E2) decrease after end of treatment (pre-treatment vs follow-up Cycle 2): completely reversible
